Among the data in patent US7585859B2, “PDE4B inhibitors and uses therefor” (Plexxikon, Inc., priority 2004, dated 2009) are IC50 values, retold here.

Format in all cases: biochemical
The target of assay [1] is T1, full-length human PDE4D5 isozyme (Homo sapiens, UniProt Q08499).
T1 construct: The full-length human PDE4D5 isozyme; His6 (N); TEV cleavage site (N); made in house; host or cells: baculovirus infected insect cells (unpurified lysate)
Description: PDE4 IC50 determination by Scintillation Proximity Assay, PDE4D5. The following applies: Table 1B, Formula I compounds; read-out: IC50 PDE4D5. Here is the method: (§1) IC50s were determined by Scintillation Proximity Assay (SPA). The principle of the assay is based on the fact that cAMP, the PDE4 substrate, binds weakly to Yittrium Silicate SPA beads, whereas AMP, the product of PDE4 hydrolysis binds strongly. Thus, the extent of PDE4 hydrolysis of a sample of [^3H]cAMP can be measured because only the
(§2) [^3H]AMP produced by PDE4 hydrolysis will bind to the SPA beads and produce a scintillation signal.
(§3) PDE4 enzymes used for IC50 assays were:
PDE4D5: The full-length human PDE4D5 isozyme with an N-terminal His6 tag (SEQ ID NO: 18) and TEV cleavage site expressed in baculovirus infected insect cells. The enzyme was not purified from the cell lysates, so enzyme concentrations were not determined. Enzyme was stored in 50% glycerol at −20°.
(§4) Compounds tested (see Tables 3B, 4B and 5A for compounds and results) were 3-fold serially diluted 11 times in DMSO from a starting concentration of 4 mM or 40 μM, depending on compound potency. 1 μl of each dilution was transferred into duplicate wells of a white polystyrene 384-well assay plate (Coming #3705). In addition to the compound dilutions, each assay plate contained control wells with 1 μl of DMSO (to define 0% enzyme inhibition) or 1 μl of 200 μM roflumilast (to define 100% enzyme inhibition). Using a Beckman FX robot, 10 μl of [^3H] cAMP (Amersham TRK559) at 2 mCi/ml in assay buffer (50 mM Tris, pH 7.5; 8.3 mM MgCl; 1.7 mM EGTA; 0.01% BSA) was transferred to each assay well. Next, 10 μl of PDE4 enzyme in assay buffer was added and the plates were shaken for 30 s. at 1000 rpm to start the cAMP hydrolysis reaction. The concentrations of enzyme used were: PDE4B, 80 ng/ml; PDE4D, 4 ng/ml; PDE4B2, 2.5 μl of 50% glycerol stock/ml; PDE4D5 0.083 μl of 50% glycerol stock/ml. Assay plates were covered and incubated for 30 min. at 30°. Reactions were stopped by robotic addition of 10 μl of 5 mg/ml SPA beads (Amersham RPNQ0013) in 18 mM ZnSO4. The assay plates were covered with clear plastic film, centrifuged for 1 min. at 1000 RPM to settle the SPA beads, and counted using a Wallac TriLux scintillation counter. IC50's were calculated from the raw assay data by non-linear regression curve fitting using the Assay Explorer software package from MDL.
On the technique in general: Scintillation proximity formats need no separation of bound from free tracer.

Assay [2] deals with T2, PDE4D (Homo sapiens, UniProt Q08499).
T2 construct: PDE4D: The catalytic domain of human PDE4B from S3 16-V692; His6 (N); thrombin cleavage site (N); made in house; host or cells: E. coli
T2 sequence (Q08499 380-756): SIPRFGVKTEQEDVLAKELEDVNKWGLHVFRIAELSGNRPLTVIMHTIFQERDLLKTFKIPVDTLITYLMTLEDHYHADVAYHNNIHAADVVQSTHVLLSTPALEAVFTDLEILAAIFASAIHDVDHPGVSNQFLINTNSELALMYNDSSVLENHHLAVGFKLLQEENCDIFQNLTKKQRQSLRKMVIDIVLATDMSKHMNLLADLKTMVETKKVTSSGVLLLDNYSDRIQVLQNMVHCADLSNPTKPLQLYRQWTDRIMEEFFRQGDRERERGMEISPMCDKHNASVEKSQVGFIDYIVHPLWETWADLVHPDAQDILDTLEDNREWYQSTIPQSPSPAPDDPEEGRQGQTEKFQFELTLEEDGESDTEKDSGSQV
The experiment in a line: PDE4 IC50 determination by Scintillation Proximity Assay, PDE4D. As to conditions: Table 1B, Formula I compounds; read-out: IC50 PDE4D. Put shortly:
(§5)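 Radiometric SPA: PDE4B (80 ng/ml) or PDE4D (4 ng/ml) hydrolysed [^3H]cAMP over 30 min at 30°, and the bead-bound [^3H]AMP was scintillation-counted.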

For assay [3], the target named is T3, full-length human PDE4B2 isozyme (Homo sapiens, UniProt Q07343).
T3 construct: The full-length human PDE4B2 isozyme; His6 (N); TEV cleavage site (N); made in house; host or cells: baculovirus infected insect cells (unpurified lysate)
T3 sequence (Q07343 1-564 isoform Q07343-2): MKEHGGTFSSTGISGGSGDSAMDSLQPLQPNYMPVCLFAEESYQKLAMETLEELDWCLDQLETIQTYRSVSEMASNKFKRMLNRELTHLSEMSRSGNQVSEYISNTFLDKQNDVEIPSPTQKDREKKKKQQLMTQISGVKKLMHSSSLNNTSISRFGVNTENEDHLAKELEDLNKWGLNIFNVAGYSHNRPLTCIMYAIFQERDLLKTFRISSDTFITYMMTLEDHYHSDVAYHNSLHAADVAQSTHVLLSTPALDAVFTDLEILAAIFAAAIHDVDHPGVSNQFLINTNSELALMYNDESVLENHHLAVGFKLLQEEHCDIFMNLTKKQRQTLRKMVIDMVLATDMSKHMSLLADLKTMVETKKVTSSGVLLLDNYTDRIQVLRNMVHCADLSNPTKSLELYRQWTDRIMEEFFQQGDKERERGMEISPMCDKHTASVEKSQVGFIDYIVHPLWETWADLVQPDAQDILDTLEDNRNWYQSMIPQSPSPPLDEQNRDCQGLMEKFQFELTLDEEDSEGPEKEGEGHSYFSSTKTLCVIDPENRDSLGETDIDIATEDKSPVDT
The experiment in a line: PDE4 IC50 determination by Scintillation Proximity Assay, PDE4B2. As to conditions: Table 1B, Formula I compounds; read-out: IC50 PDE4B2. Here is the method: as §1, §2, §3
PDE4B2: The full-length human PDE4B2 isozyme with an N-terminal His6 tag (SEQ ID NO: 18) and TEV cleavage site expressed in baculovirus infected insect cells. The enzyme was not purified from the cell lysates, so enzyme concentrations were not determined. Enzyme was stored in 50% glycerol at −20°.
as §4

Assay [4] concerns the target T4, PDE4B: The catalytic domain of human PDE4B from S152-S528 (Homo sapiens, UniProt Q07343).
T4 construct: His6 (N); thrombin cleavage site (N); made in house; host or cells: E. coli
Description: PDE4 IC50 determination by Scintillation Proximity Assay, PDE4B. The following applies: Table 1B, Formula I compounds; read-out: IC50 PDE4B. Summed up: as §5

T1 sequence (Q08499 1-745 isoform Q08499-6): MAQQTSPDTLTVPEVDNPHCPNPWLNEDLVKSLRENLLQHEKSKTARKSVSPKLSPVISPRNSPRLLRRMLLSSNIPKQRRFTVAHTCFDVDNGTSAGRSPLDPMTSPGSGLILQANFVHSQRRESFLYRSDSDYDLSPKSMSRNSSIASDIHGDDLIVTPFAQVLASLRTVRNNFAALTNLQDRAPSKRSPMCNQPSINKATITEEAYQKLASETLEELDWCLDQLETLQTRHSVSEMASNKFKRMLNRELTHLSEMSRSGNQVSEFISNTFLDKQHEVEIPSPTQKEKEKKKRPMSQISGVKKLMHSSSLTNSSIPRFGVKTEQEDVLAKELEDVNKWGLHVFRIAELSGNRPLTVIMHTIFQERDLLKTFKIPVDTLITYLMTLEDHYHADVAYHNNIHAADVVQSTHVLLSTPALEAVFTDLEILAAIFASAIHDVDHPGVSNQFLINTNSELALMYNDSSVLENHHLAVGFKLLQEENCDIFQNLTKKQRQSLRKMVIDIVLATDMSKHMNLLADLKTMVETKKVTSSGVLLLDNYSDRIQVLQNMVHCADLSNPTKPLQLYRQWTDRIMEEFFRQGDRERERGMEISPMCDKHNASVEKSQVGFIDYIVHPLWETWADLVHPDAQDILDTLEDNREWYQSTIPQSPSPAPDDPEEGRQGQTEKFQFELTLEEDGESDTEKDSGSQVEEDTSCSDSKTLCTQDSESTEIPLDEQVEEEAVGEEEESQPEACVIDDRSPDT
T4 sequence (Q07343 with tags, fused parts or gaps): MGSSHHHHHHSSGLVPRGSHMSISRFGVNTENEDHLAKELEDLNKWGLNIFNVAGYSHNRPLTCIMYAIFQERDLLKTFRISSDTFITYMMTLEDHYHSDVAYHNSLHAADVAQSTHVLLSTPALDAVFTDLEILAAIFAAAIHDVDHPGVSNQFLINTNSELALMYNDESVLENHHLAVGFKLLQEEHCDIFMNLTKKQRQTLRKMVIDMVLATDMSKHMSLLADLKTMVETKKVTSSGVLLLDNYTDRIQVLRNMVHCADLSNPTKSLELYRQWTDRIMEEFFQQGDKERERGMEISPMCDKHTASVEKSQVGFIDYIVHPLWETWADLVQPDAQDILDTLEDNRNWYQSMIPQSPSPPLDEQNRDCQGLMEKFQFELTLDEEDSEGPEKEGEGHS

As to `N#Cc1c(Nc2ccco2)sc(C(=O)c2cc(-c3ccccc3)no2)c1N` [Compound 1-208, 4-Amino-2-(furan-2-ylamino)-5-(3-phenyl-isoxazole-5-carbonyl)-thiophene-3-carbonitrile], the IC50 (in general, the concentration that inhibits the measured activity by half) in assay [1] is greater than 10 µM; in assay [2], greater than 10 µM; in assay [3], less than 10 µM; in assay [4], greater than 10 µM.

For `COc1ccc(Nc2sc(C(=O)c3ccc(C)cc3C)c(N)c2C#N)cc1` [Compound 1-85], the IC50 in assay [1], in assay [2], in assay [3] and in assay [4] was less than 10 µM throughout.

Consider `CCOC(=O)c1c(NC2CCCC2)sc(C(=O)c2cc(-c3ccccc3)no2)c1N` [Compound 1-200, 4-Amino-2-cyclopentylamino-5-(3-phenyl-isoxazole-5-carbonyl)-thiophene-3-carboxylic acid ethyl ester], for which the IC50 in assay [1] was greater than 10 µM; in assay [2], less than 10 µM; in assay [3] it was greater than 10 µM; in assay [4] it was greater than 10 µM.

For the molecule `COc1ccc(C(=O)c2sc(NC3CCCC3)c(C#N)c2N)c(OC)c1` [Compound 1-43, 4-Amino-2-cyclopentylamino-5-(2,4-dimethoxy-benzoyl)-thiophene-3-carbonitrile], the IC50 in assay [1], in assay [2], in assay [3] and in assay [4] was less than 10 µM throughout.

Take `N#Cc1c(NCCN2CCOCC2)sc(C(=O)c2cc(-c3ccccc3)no2)c1N` [Compound 1-213, 4-Amino-2-(2-morpholin-4-yl-ethylamino)-5-(3-phenyl-isoxazole-5-carbonyl)-thiophene-3-carbonitrile]: the concentration for half-maximal inhibition (IC50) was greater than 10 µM in assay [1], less than 10 µM in assay [2], greater than 10 µM in assay [3] and less than 10 µM in assay [4].

For `COC(=O)c1ccccc1Nc1sc(C(=O)c2c(-c3ccccc3)noc2C)c(N)c1C#N` [Compound 1-130, 2-[4-Amino-3-cyano-5-(5-methyl-3-phenyl-isoxazole-4-carbonyl)-thiophen-2-ylamino]-benzoic acid methyl ester], the IC50 in assay [1], in assay [2], in assay [3] and in assay [4] was less than 10 µM in each case.

Take `N#Cc1c(Nc2ccc(Cl)cc2)sc(C(=O)c2sccc2Cl)c1N` [Compound 1-17, 4-Amino-2-(4-chloro-phenylamino)-5-(3-chloro-thiophene-2-carbonyl)-thiophene-3-carbonitrile]: the IC50 in assay [1], in assay [2], in assay [3] and in assay [4] was less than 10 µM in each case.

Regarding `CCC(CC)Nc1sc(C(=O)c2cc(-c3ccccc3)no2)c(N)c1C#N` [Compound 1-228, 4-Amino-2-(1-ethyl-propylamino)-5-(3-phenyl-isoxazole-5-carbonyl)-thiophene-3-carbonitrile], the IC50 in assay [1] was greater than 10 µM; in assay [2], less than 10 µM; in assay [3], greater than 10 µM; in assay [4], less than 10 µM.

`N#Cc1c(NCCN2CCCCC2)sc(C(=O)c2cc(-c3ccc(Cl)cc3Cl)no2)c1N` [Compound 1-82, 4-Amino-5-[3-(2,4-dichloro-phenyl)-isoxazole-5-carbonyl]-2-(2-piperidin-1-yl-ethylamino)-thiophene-3-carbonitrile]: the IC50 in assay [1], in assay [2], in assay [3] and in assay [4] was greater than 10 µM each time.

For the molecule `N#Cc1c(NC2CCCCC2)sc(C(=O)c2cc(-c3ccccc3)no2)c1N` [Compound 1-204, 4-Amino-2-cyclohexylamino-5-(3-phenyl-isoxazole-5-carbonyl)-thiophene-3-carbonitrile], the IC50 in assay [1], in assay [2], in assay [3] and in assay [4] was greater than 10 µM throughout.

On to `COc1ccc(Nc2sc(C(=O)c3c(-c4ccccc4)noc3C)c(N)c2C#N)cc1` [Compound 1-129, 4-Amino-2-(4-methoxy-phenylamino)-5-(5-methyl-3-phenyl-isoxazole-4-carbonyl)-thiophene-3-carbonitrile], for which the IC50 in assay [1], in assay [2], in assay [3] and in assay [4] was less than 10 µM each time.

For `CSc1cccc(Nc2sc(C(=O)c3ccccc3Cl)c(N)c2C#N)c1` [Compound 1-180, 4-Amino-5-(2-chloro-benzoyl)-2-(3-methylsulfanyl-phenylamino)-thiophene-3-carbonitrile], the IC50 in assay [1], in assay [2], in assay [3] and in assay [4] was less than 10 µM throughout.

Consider `COc1ccc(Nc2sc(C(=O)c3ccc(-c4ccccn4)s3)c(N)c2C#N)cc1` [Compound 1-68, 4-Amino-2-(4-methoxy-phenylamino)-5-(5-pyridin-2-yl-thiophene-2-carbonyl)-thiophene-3-carbonitrile], for which the half-maximal inhibitory concentration (IC50) in assay [1] was greater than 10 µM; in assay [2] it was less than 10 µM; in assay [3] it was greater than 10 µM; in assay [4] it was less than 10 µM.

Consider `N#Cc1c(Nc2ccc3c(c2)CCC3)sc(C(=O)c2ccc(-c3ccccn3)s2)c1N` [Compound 1-71, 4-Amino-2-(indan-5-ylamino)-5-(5-pyridin-2-yl-thiophene-2-carbonyl)-thiophene-3-carbonitrile], for which the IC50 was greater than 10 µM in assay [1], less than 10 µM in assay [2], less than 10 µM in assay [3] and less than 10 µM in assay [4].

`CCOC(=O)c1c(Nc2ccccc2OC)sc(C(=O)c2ccccc2)c1N` [Compound 1-21, 4-Amino-5-benzoyl-2-(2-methoxy-phenylamino)-thiophene-3-carboxylic acid ethyl ester]: the 50% inhibitory concentration (IC50) in assay [1], in assay [2], in assay [3] and in assay [4] was less than 10 µM in each case.

For the molecule `CCc1ccccc1Nc1sc(C(=O)c2ccc(-c3ccccn3)s2)c(N)c1C#N` [Compound 1-81, 4-Amino-2-(2-ethyl-phenylamino)-5-(5-pyridin-2-yl-thiophene-2-carbonyl)-thiophene-3-carbonitrile], the 50% inhibitory concentration (IC50) is greater than 10 µM in assay [1], less than 10 µM in assay [2], greater than 10 µM in assay [3] and less than 10 µM in assay [4].

Regarding `N#Cc1c(Nc2ccccc2F)sc(C(=O)c2ccc(-c3ccccn3)s2)c1N` [Compound 1-67, 4-Amino-2-(2-fluoro-phenylamino)-5-(5-pyridin-2-yl-thiophene-2-carbonyl)-thiophene-3-carbonitrile], the IC50 in assay [1], in assay [2], in assay [3] and in assay [4] was less than 10 µM in each case.

For `COc1ccc(Nc2sc(C(=O)c3cnn(-c4ccccc4)c3C)c(N)c2C#N)cc1` [Compound 1-50, 4-Amino-2-(4-methoxy-phenylamino)-5-(5-methyl-1-phenyl-1H-pyrazole-4-carbonyl)-thiophene-3-carbonitrile], the IC50 in assay [1], in assay [2], in assay [3] and in assay [4] was less than 10 µM throughout.

As for `N#Cc1c(NC2CCCC2)sc(C(=O)c2cc(-c3ccc(Cl)cc3Cl)no2)c1N` [Compound 1-227, 4-Amino-2-cyclopentylamino-5-[3-(2,4-dichloro-phenyl)-isoxazole-5-carbonyl]-thiophene-3-carbonitrile], the IC50 was greater than 10 µM in assay [1], less than 10 µM in assay [2], greater than 10 µM in assay [3] and less than 10 µM in assay [4].
